Data from ChEMBL document CHEMBL1201862, “PubChem BioAssay data set” (2004).
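Results reflect a 48-hour exposure of cells in 96-well plates to compound at five concentrations. The concentration for 50% growth inhibition is given as GI50.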 Calls of active or inactive are those of the source. Cut-off read from the data, not from the text of the source: active = GI50 up to about 1.1 µM and inactive = higher.

Columns and labels:
Experiment in all cases: growth of human tumour cells (NCI), 48 h
NCI-H460 = test system: NCI-H460
HCC 2998 = test system: HCC 2998
OVCAR-5 = test system: OVCAR-5
EKVX = test system: EKVX
SK-OV-3 = test system: SK-OV-3
OVCAR-8 = test system: OVCAR-8
M19-MEL = test system: M19-MEL
RPMI-8226 = test system: RPMI-8226
NCI-H226 = test system: NCI-H226
TK-10 = test system: TK-10
LXFL 529 = test system: LXFL 529
SW-620 = test system: SW-620
HCT-116 = test system: HCT-116
IGROV-1 = test system: IGROV-1
XF498 = test system: XF498
MOLT-4 = test system: MOLT-4
786-0 = test system: 786-0
M14 = test system: M14
K562 = test system: K562
CAKI-1 = test system: CAKI-1
A549 = test system: A549
UO-31 = test system: UO-31
DMS-273 = test system: DMS-273
RXF 393 = test system: RXF 393
DLD-1 = test system: DLD-1
UACC-62 = test system: UACC-62
SK-MEL-28 = test system: SK-MEL-28
SF-295 = test system: SF-295
ACHN = test system: ACHN
OVCAR-3 = test system: OVCAR-3
KM12 = test system: KM12
KM-20L2 = test system: KM-20L2
U-251 = test system: U-251
HL-60 = test system: HL-60
HCT-15 = test system: HCT-15
OVCAR-4 = test system: OVCAR-4
SK-MEL-2 = test system: SK-MEL-2
CCRF-CEM = test system: CCRF-CEM
NCI-H23 = test system: NCI-H23
SNB-75 = test system: SNB-75
SF-539 = test system: SF-539
SK-MEL-5 = test system: SK-MEL-5
HT-29 = test system: HT-29
HOP-62 = test system: HOP-62
Malme-3M = test system: Malme-3M
UACC-257 = test system: UACC-257
A498 = test system: A498
SNB-78 = test system: SNB-78
DMS-114 = test system: DMS-114
LOX IMVI = test system: LOX IMVI
NCI-H522 = test system: NCI-H522
SF-268 = test system: SF-268
SN12C = test system: SN12C
COLO 205 = test system: COLO 205
HOP-92 = test system: HOP-92
SNB-19 = test system: SNB-19

Measured: GI50

CCc1ccc(Nc2ccc([N+](=O)[O-])cc2[N+](=O)[O-])cc1
96.4 µM: HCT-15
inactive: NCI-H460 69.2 µM | HCC 2998 > 100 µM | OVCAR-5 > 100 µM | EKVX 75.9 µM | SK-OV-3 > 100 µM | OVCAR-8 97.7 µM | M19-MEL > 100 µM | RPMI-8226 39.1 µM | NCI-H226 34.2 µM | TK-10 73.8 µM | LXFL 529 50.9 µM | SW-620 > 100 µM | HCT-116 36.7 µM | IGROV-1 97.3 µM | XF498 > 100 µM | MOLT-4 19.1 µM | 786-0 > 100 µM | M14 > 100 µM | K562 29.8 µM | CAKI-1 39.1 µM | A549 40.9 µM | UO-31 26.2 µM | DMS-273 96.6 µM | RXF 393 71.4 µM | DLD-1 > 100 µM | UACC-62 56.6 µM | SK-MEL-28 > 100 µM | SF-295 89.7 µM | ACHN > 100 µM | OVCAR-3 44.4 µM | KM12 52.5 µM | KM-20L2 69.3 µM | U-251 77.1 µM | HL-60 26.8 µM | OVCAR-4 34.5 µM | SK-MEL-2 > 100 µM | CCRF-CEM 35.2 µM | NCI-H23 71.1 µM | SNB-75 39.7 µM | SF-539 > 100 µM | SK-MEL-5 38.6 µM | HT-29 47.3 µM | HOP-62 > 100 µM | Malme-3M > 100 µM | UACC-257 67.8 µM | A498 23.7 µM | SNB-78 87.3 µM | DMS-114 29.4 µM

N#CC1CCCCCCCCCCC(=O)N(CCCl)C1=O (configuration not stated)
inactive: NCI-H460 > 100 µM | HCC 2998 > 100 µM | OVCAR-5 > 100 µM | LOX IMVI > 100 µM | EKVX > 100 µM | SK-OV-3 > 100 µM | NCI-H522 > 100 µM | OVCAR-8 > 100 µM | M19-MEL > 100 µM | RPMI-8226 > 100 µM | TK-10 > 100 µM | LXFL 529 > 100 µM | SW-620 > 100 µM | IGROV-1 > 100 µM | XF498 > 100 µM | MOLT-4 > 100 µM | 786-0 > 100 µM | M14 > 100 µM | K562 > 100 µM | CAKI-1 > 100 µM | A549 > 100 µM | UO-31 > 100 µM | DMS-273 > 100 µM | RXF 393 > 100 µM | DLD-1 > 100 µM | UACC-62 > 100 µM | SK-MEL-28 > 100 µM | SF-295 > 100 µM | ACHN > 100 µM | OVCAR-3 > 100 µM | KM12 > 100 µM | KM-20L2 > 100 µM | U-251 > 100 µM | HL-60 > 100 µM | SF-268 > 100 µM | OVCAR-4 > 100 µM | SK-MEL-2 > 100 µM | SN12C > 100 µM | CCRF-CEM > 100 µM | NCI-H23 > 100 µM | COLO 205 > 100 µM | SNB-75 > 100 µM | HOP-92 > 100 µM | SF-539 > 100 µM | SK-MEL-5 > 100 µM | HT-29 > 100 µM | SNB-19 > 100 µM | HOP-62 > 100 µM | Malme-3M > 100 µM | UACC-257 > 100 µM | A498 > 100 µM | SNB-78 > 100 µM | DMS-114 > 100 µM
